Assay results as given in PMC4459787 (Science (New York, N.Y.), 2014).
Ends that are not written are not given here.

What was measured:
[1] = test system: human astrocytes; test: Nucleolar localisation by HA immunostaining in human astrocytes; type: cell-based; settings: U2OS cancer cells and human astrocytes, HA antibody and Fibrillarin staining
[2] = test system: U2OS cells; test: Cell entry and nucleolar localisation by HA immunostaining in U2OS cells; type: cell-based; settings: 10 μM, 30 min, fixed, HA antibody staining
[3] = test system: EAAT2 transcript; test: RT-PCR of EAAT2 transcript splicing in human astrocytes; type: cell-based; settings: for aberrant EAAT2 splicing: human astrocytes exposed to toxin until clear evidence of toxicity, PCR, fig. S6B
[4] = test system: ribosomal RNA (45S precursor, 18S, 5.8S, 28S); test: qPCR of rRNA synthesis and processing in peptide-treated human astrocytes; type: cell-based; settings: 12 hours
[5] = type: in vitro ADME; settings: cells or culture medium
[6] = test system: pre-mRNA splicing (RAN GTPase, PTX3, NACA, GADD45A); type: cell-based; settings: human astrocytes
[7] = test system: U2OS cells; type: cell-based
[8] = biological target: mCherry:hnRNPA2 hydrogel droplets (low complexity domain of hnRNPA2) (Homo sapiens, UniProt P22626); test: Binding to mCherry:hnRNPA2 hydrogel droplets; settings: GFP signal at the periphery of mCherry:hnRNPA2 hydrogel droplets; overnight incubation at 4°C
Chain of mCherry:hnRNPA2 hydrogel droplets (low complexity domain of hnRNPA2) (P22626 193-353 limits assumed, one chain of several): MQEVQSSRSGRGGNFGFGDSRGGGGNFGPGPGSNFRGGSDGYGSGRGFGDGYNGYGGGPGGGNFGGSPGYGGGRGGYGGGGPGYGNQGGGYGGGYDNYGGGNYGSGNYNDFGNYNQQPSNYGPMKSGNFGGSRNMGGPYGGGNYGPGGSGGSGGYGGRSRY

CC(C)[C@H](NC(=O)[C@H](CC(=O)O)NC(=O)[C@H](Cc1ccc(O)cc1)NC(=O)[C@@H]1CCCN1C(=O)[C@H](Cc1ccc(O)cc1)NC(=O)[C@H](CCCNC(=N)N)NC(=O)CNC(=O)[C@H](CCCNC(=N)N)NC(=O)CNC(=O)[C@H](CCCNC(=N)N)NC(=O)CNC(=O)[C@H](CCCNC(=N)N)NC(=O)CNC(=O)[C@H](CCCNC(=N)N)NC(=O)CNC(=O)[C@H](CCCNC(=N)N)NC(=O)CNC(=O)[C@H](CCCNC(=N)N)NC(=O)CNC(=O)[C@H](CCCNC(=N)N)NC(=O)CNC(=O)[C@H](CCCNC(=N)N)NC(=O)CNC(=O)[C@H](CCCNC(=N)N)NC(=O)CNC(=O)[C@H](CCCNC(=N)N)NC(=O)CNC(=O)[C@H](CCCNC(=N)N)NC(=O)CNC(=O)[C@H](CCCNC(=N)N)NC(=O)CNC(=O)[C@H](CCCNC(=N)N)NC(=O)CNC(=O)[C@H](CCCNC(=N)N)NC(=O)CNC(=O)[C@H](CCCNC(=N)N)NC(=O)CNC(=O)[C@H](CCCNC(=N)N)NC(=O)CNC(=O)[C@H](CCCNC(=N)N)NC(=O)CNC(=O)[C@H](CCCNC(=N)N)NC(=O)CNC(=O)[C@H](CCCNC(=N)N)NC(=O)CN)C(=O)N1CCC[C@H]1C(=O)N[C@@H](CC(=O)O)C(=O)N[C@@H](Cc1ccc(O)cc1)C(=O)N[C@@H](C)C(=O)O [GR20]
nucleolar association [1]: associated prominently with nucleoli
cell entry and localisation [2]: entered cells, migrated to the nucleus and bound to nucleoli

C=C1[C@@H](C)[C@H]2[C@H](Cc3ccccc3)NC(=O)[C@]23[C@H](OC(C)=O)/C=C/[C@@](C)(O)C(=O)[C@@H](C)C/C=C/[C@H]3[C@@H]1O [cytochalasin D]
aberrant EAAT2 splicing [3]: None of the four toxins gave evidence of aberrant splicing

COc1cccc2c1C(=O)c1c(O)c3c(c(O)c1C2=O)C[C@@](O)(C(=O)CO)C[C@@H]3O[C@H]1C[C@H](N)[C@H](O)[C@H](C)O1 [doxorubicin]
aberrant EAAT2 splicing [3]: None of the four toxins gave evidence of aberrant splicing

CN[C@@H]1C[C@H]2O[C@@](C)([C@@H]1OC)n1c3ccccc3c3c4c(c5c6ccccc6n2c5c31)C(=O)NC4 [staurosporin]
aberrant EAAT2 splicing [3]: None of the four toxins gave evidence of aberrant splicing

CC(=O)O[C@H]1C(=O)[C@@]2(C)[C@H]([C@H](OC(=O)c3ccccc3)[C@]3(O)C[C@H](OC(=O)[C@H](O)[C@@H](NC(=O)c4ccccc4)c4ccccc4)C(C)=C1C3(C)C)[C@]1(OC(C)=O)CO[C@@H]1C[C@@H]2O [taxol]
aberrant EAAT2 splicing [3]: None of the four toxins gave evidence of aberrant splicing

PRPRPRPRPRPRPRPRPRPRPRPRPRPRPRPRPRPRPRPRYPYDVPDYA [PR20]
attenuation of rRNA precursor, 3′ junction of 5.8S rRNA ([4]; 10 μM, qPCR): 40%
attenuation of rRNA precursor, third probe (5′ end of 5.8S rRNA) ([4]; 10 μM, qPCR): roughly 20%
elevation of rRNA precursor, 5′ transcribed spacer primers ([4]; 10 μM, qPCR): 20%
immature rRNA, first junctional probe (5′ end of 18S rRNA) ([4]; 10 μM, qPCR): elevation in immature rRNA
rRNA precursor, 5′ junction of 28S rRNA ([4]; 10 μM, qPCR): normal precursor levels
rRNA precursor, second junctional probe (3′ end of 18S rRNA) ([4]; 10 μM, qPCR): normal levels of rRNA precursor
28S rRNA level ([4]; 30 μM, qPCR): Slight reductions
drop of rRNA precursor, 3′ terminus of 5.8S rRNA ([4]; 30 μM, qPCR): 70%
reduction of the level of 5.8S rRNA ([4]; 30 μM, qPCR relative to vehicle): 70%
half-life [5]: 72 h
nucleolar association [1]: associated prominently with nucleoli
cell entry and localisation [2]: entered cells, migrated to the nucleus and bound to nucleoli
splicing of GADD45 mRNA ([6]; 6 hours, RT-PCR): include the full intronic sequences on both sides of exon 2
splicing of NACA mRNA ([6]; 6 hours, RT-PCR): contain a different 5′ UTR
splicing of PTX3 mRNA ([6]; 6 hours, RT-PCR): exon 2-skipping
splicing of RAN GTPase mRNA ([6]; 6 hours, RT-PCR): exon 2-skipping
expression of the ribosomal protein gene family ([6]; RNA-seq, P < 2.2e-16, Kolmogorov–Smirnov test): significantly up-regulated
aberrant EAAT2 splicing (exon 9-skipped form and intron 7 retention) ([3]; human astrocytes, 10 or 15 μM, 36 hours, RT-PCR): appeared in a concentration-dependent manner
time to half-maximal impact on cell viability ([7]; 10 μM peptide, fig. S4E): roughly 36 hours
time to 50% cell death ([7]; 30 μM dose of the peptide, fig. S4F): 6 h
cell morphology ([7]; U2OS cells, 10 μM, within 24 hours): spindle-like phenotype
cell morphology and viability ([7]; U2OS cells, 30 μM, 24 hours): almost all cells were detached from the culture substrate and dead

green fluorescent protein [GFP]
binding to hnRNPA2 hydrogel droplets [8]: did not bind
